What all share (format): biochemical
One assay concerns the target T1, LYPLA1 (Mus musculus, UniProt P97823).
T1 construct: a complex proteome endogenously expressing LYPLA1/2 was incubated with test compound; from tissue; host or cells: mouse brain, membrane fraction
Briefly: Gel-based competitive ABPP in vitro, mouse brain membrane proteome. As to conditions: for LYPLA1 in vitro enzyme activity, % @ 20 μM: mouse brain (mem) proteome; for inhibition at 0.1 µM: 0.1 μM compound, read-out: LYPLA1 % INH 0.1 μM; for inhibition at 0.1 µM / inhibition at 1 µM / inhibition at 10 µM / inhibition at 100 µM: 30 min, one replicate; for inhibition at 1 µM: 1 μM compound, read-out: LYPLA1 % INH 1 μM; for inhibition at 10 µM: 10 μM compound, read-out: LYPLA1 % INH 10 μM; for inhibition at 100 µM: 100 μM compound, read-out: LYPLA1 % INH 100 μM. How it is done: (§1) Assay Overview: The purpose of this assay was to determine whether test compounds can inhibit LYPLA1 and LYPLA2 in a complex proteomic lysate and to assess anti-target inhibition using a competitive activity-based proteomic profiling (ABPP) assay. In this assay, a complex proteome endogenously expressing LYPLA1/2 was incubated with test compound followed by reaction with a rhodamine-conjugated fluorophosphonate (FP-Rh) serine-hydrolase specific activity-based probe. The reaction products were separated by SDS-PAGE and visualized in-gel using a flatbed fluorescence scanner. The percentage activity remaining was determined by measuring the integrated optical density of the bands. […] Percent inhibition was calculated relative to a DMSO (no compound) control.
(§2) Protocol Summary: Mouse brain membrane proteome (50 μL reaction volume, 1 mg/mL in DPBS) was treated with 0.1-100 μM test compound (1 μL of a 50× stock in DMSO) for 30 minutes at 37° C. FP-Rh (1 μL of 50× stock in DMSO, Thermo #88318) was added to a final concentration of 2 μM. The reactions were incubated for 30 minutes at 25° C., quenched with 16 μL 4×SDS-PAGE loading buffer (reducing), separated by SDS-PAGE and visualized by in-gel fluorescent scanning. The percentage activity remaining was determined by measuring the integrated optical density of the bands relative to a DMSO-only (no compound) control. Assay Cutoff: Compounds with ≥50% inhibition of targets at 1 μM test compound concentration were considered active.
(§3) N-Hydroxy bicyclic hydantoin carbamates (Compounds 1-20) listed in Table 1 were subjected to gel-based competitive ABPP screening to assess SH reactivity against more than 20 FP-sensitive SHs visible by 1D SDS-PAGE separation and fluorescent detection in the mouse brain proteome (see FIG. 1). […] Compound treatment ([…], 30 minutes) was followed by labeling with SH-specific ABPP probe FP-Rh (2 μM, 30 minutes), 1D-SDS-PAGE, and in-gel fluorescent visualization of FP-labeled proteins. Assignment of LYPLA1/2 bands was based on correlation of molecular weights, expression and inhibition profiles with LC-MS/MS data and recombinant enzyme expression. Proteins were listed as anti-targets if at least 50% inhibition was observed as quantified relative to the DMSO control.
(§4) Compounds 1-20 were subjected to gel-based competitive ABPP profiling to assess potency and selectivity against several dozen FP-sensitive SHs in the mouse brain membrane proteome, which endogenously expresses LYPLA1 and LYPLA2, as well a diversity of potential SH anti-targets. Compounds were tested at 100 μM, 10 μM, 1 μM, and/or 0.1 μM compound concentration.

Another assay deals with T2, LYPLA2 (Mus musculus, UniProt Q9WTL7).
T2 construct: a complex proteome endogenously expressing LYPLA1/2 was incubated with test compound; from tissue; host or cells: mouse brain, membrane fraction
Described as above. As to conditions: for LYPLA2 in vitro enzyme activity, % @ 20 μM: mouse brain (mem) proteome; for inhibition at 0.1 µM: 0.1 μM compound, read-out: LYPLA2 % INH 0.1 μM; for inhibition at 0.1 µM / inhibition at 1 µM / inhibition at 10 µM / inhibition at 100 µM: 30 min, one replicate; for inhibition at 1 µM: 1 μM compound, read-out: LYPLA2 % INH 1 μM; for inhibition at 10 µM: 10 μM compound, read-out: LYPLA2 % INH 10 μM; for inhibition at 100 µM: 100 μM compound, read-out: LYPLA2 % INH 100 μM. The protocol: as §1, §2, §3, §4

The target of another assay is T3, ABHD6 (Mus musculus, UniProt Q8R2Y0).
T3 construct: from tissue; host or cells: mouse brain, membrane fraction
T3 sequence (Q8R2Y0 1-336): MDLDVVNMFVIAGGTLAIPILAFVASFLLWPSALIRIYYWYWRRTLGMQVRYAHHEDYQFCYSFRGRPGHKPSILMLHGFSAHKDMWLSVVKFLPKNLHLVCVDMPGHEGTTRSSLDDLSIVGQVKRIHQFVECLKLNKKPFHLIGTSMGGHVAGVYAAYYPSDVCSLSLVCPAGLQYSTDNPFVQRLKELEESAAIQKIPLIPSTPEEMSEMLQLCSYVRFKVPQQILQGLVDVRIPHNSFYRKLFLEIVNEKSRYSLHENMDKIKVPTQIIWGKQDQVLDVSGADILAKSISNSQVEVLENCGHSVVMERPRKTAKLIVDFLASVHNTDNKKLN
The assay is described as above. As to conditions: for ABHD6 in vitro enzyme activity, % @ 20 μM: mouse brain (mem) proteome. The protocol:
as §1, §2
Assay Overview: The purpose of this assay was to determine IC50 values of powder samples of test compounds for enzyme of interest activity, and anti-targets in a complex proteomic lysate using a gel-based competitive ABPP assay. In this assay, a complex proteome was incubated with test compound followed by reaction with FP-Rh and SDS-PAGE analysis as described above.
Protocol Summary: Soluble HeLa cell proteome (50 μL reaction volume, 1 mg/mL in DPBS) or mouse brain membrane proteome (50 μL reaction volume, 1 mg/mL in DPBS) was treated with varying concentrations of test compound (1 μL of a 50× stock in DMSO) for 30 minutes at 37° C. FP-Rh (1 μL of 50× stock in DMSO) was added to a final concentration of 2 μM. The reaction was incubated for 30 minutes at 25° C., quenched with 16 μL 4×SDS-PAGE loading buffer (reducing), separated by SDS-PAGE and visualized by in-gel fluorescent scanning. The percentage activity remaining was determined by measuring the integrated optical density of the enzymes of interest, and anti-target bands relative to a DMSO-only (no compound) control. IC50 values were determined from dose-response curves from three replicates at each inhibitor concentration: 1, 10, 100, 1000, 10000 nM and 0.01, 0.1, 1, 10, 100, 1000, 10000, 50000, and 100000 nM.

The test system of assay [1] is FP-sensitive SHs in the mouse brain membrane proteome. The assay can be described thus: Gel-based competitive ABPP in vitro, mouse brain membrane proteome, anti-targets. As to conditions: for Anti-target(s) 0.1 μM: SHs with at least 50% inhibition at 0.1 μM compound; for Anti-target(s) 1 μM: SHs with at least 50% inhibition at 1 μM compound; for Anti-target(s) 10 μM: SHs with at least 50% inhibition at 10 μM compound; for Anti-target(s) 100 μM: SHs with at least 50% inhibition at 100 μM compound. The protocol:
as §1, §2, §3, §4

“Also recorded” adds a separate entry of the source.

T1 sequence (P97823 whole entry): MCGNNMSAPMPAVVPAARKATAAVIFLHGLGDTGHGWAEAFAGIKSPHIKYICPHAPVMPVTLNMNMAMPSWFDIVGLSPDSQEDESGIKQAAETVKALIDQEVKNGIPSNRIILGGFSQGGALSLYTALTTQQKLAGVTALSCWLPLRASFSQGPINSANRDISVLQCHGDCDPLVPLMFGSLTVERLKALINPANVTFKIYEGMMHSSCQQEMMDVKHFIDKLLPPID
T2 sequence (Q9WTL7 whole entry): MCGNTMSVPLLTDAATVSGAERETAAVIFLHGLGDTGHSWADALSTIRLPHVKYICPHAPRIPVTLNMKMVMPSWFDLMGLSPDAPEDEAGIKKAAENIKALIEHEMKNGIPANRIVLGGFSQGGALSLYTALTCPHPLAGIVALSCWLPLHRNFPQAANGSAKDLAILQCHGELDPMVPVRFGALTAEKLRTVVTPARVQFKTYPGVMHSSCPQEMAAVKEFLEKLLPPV

With `COc1ccc(N2CCN(C(=O)ON3C(=O)C4CN(C)CCN4C3=O)CC2)cc1` (stereo not shown) [Compound 23, 7-methyl-1,3-dioxohexahydroimidazo[1,5-a]pyrazin-2(3H)-yl 4-(4-methoxyphenyl)piperazine-1-carboxylate], the “LYPLA1 in vitro enzyme activity, % @ 20 μM” value at LYPLA1 was determined as 0% @. Further, the “LYPLA2 in vitro enzyme activity, % @ 20 μM” value at LYPLA2 is listed as 0% @. Also, the “ABHD6 in vitro enzyme activity, % @ 20 μM” value at ABHD6 amounted to 100% @.

Take `COc1ccc(N2CCN(C(=O)ON3C(=O)NC(C(C)C)C3=O)CC2)cc1` (stereo not shown) [MJN193, 4-isopropyl-2,5-dioxoimidazolidin-1-yl 4-(4-methoxyphenyl)piperazine-1-carboxylate]: the “potency and selectivity for ABHD6, concentration-dependent profiling” value at ABHD6 (mouse brain membrane SHs, FIG. 7B) was “good potency and selectivity”.

With `CC(C)(C)OC(=O)N1CCN2C(=O)N(OC(=O)N3CCN(CCc4ccccc4)CC3)C(=O)C2C1` (stereo not shown) [Compound 17, tert-butyl 1,3-dioxo-2-(4-phenethylpiperazine-1-carbonyloxy)hexahydroimidazo[1,5-a]pyrazine-7(1H)-carboxylate], on LYPLA1, the inhibition at 0.1 µM stood at 0%, the inhibition at 1 µM amounted to 0%, the inhibition at 10 µM was 75% and the inhibition at 100 µM is 90%. Besides, on LYPLA2, the inhibition at 0.1 µM was 0%, the inhibition at 1 µM was 0%, the inhibition at 10 µM came out at 50% and the inhibition at 100 µM was 75%. Besides, in assay [1], the “Anti-target(s) 0.1 μM” value is listed as “ABHD6”, the “Anti-target(s) 1 μM” value is listed as “ABHD6”, the “Anti-target(s) 10 μM” value is listed as “ABHD6” and the “Anti-target(s) 100 μM” value was “FAAH,; also recorded: ABHD12,; also recorded: ABHD6”.

Turning to `CC(C)(C)OC(=O)N1CCN2C(=O)N(OC(=O)N3CCCCC3)C(=O)C2C1` (stereo not shown) [Compound 14, tert-butyl 1,3-dioxo-2-(piperidine-1-carbonyloxy)hexahydroimidazo[1,5-a]pyrazine-7(1H)-carboxylate], on LYPLA1, the inhibition at 0.1 µM is 0%, the inhibition at 1 µM stood at 0%, the inhibition at 10 µM came out at 0% and the inhibition at 100 µM worked out at 25%. On LYPLA2, the inhibition at 0.1 µM came out at 0%, the inhibition at 1 µM is 0%, the inhibition at 10 µM is 0% and the inhibition at 100 µM was found to be 25%. Moreover, in assay [1], the “Anti-target(s) 0.1 μM” value is reported as “ABHD6”, the “Anti-target(s) 1 μM” value is “ABHD6”, the “Anti-target(s) 10 μM” value is “ABHD6” and the “Anti-target(s) 100 μM” value is recorded as “APEH,; also recorded: ABHD6”.

Turning to `O=C(Cc1ccccc1)N1CCN2C(=O)N(OC(=O)N3CCC(CCc4ccc(Cl)cc4)CC3)C(=O)C2C1` (stereo not shown) [Compound 6, 1,3-dioxo-7-(2-phenylacetyl)hexahydroimidazo[1,5-a]pyrazin-2(3H)-yl 4-(4-chlorophenethyl)piperidine-1-carboxylate], at LYPLA1, the inhibition at 0.1 µM is 25%, the inhibition at 1 µM was determined as 95%, the inhibition at 10 µM stood at 100% and the inhibition at 100 µM was 100%. Further, on LYPLA2, the inhibition at 0.1 µM was found to be 25%, the inhibition at 1 µM amounted to 95%, the inhibition at 10 µM was determined as 100% and the inhibition at 100 µM stood at 100%. Also, in assay [1], the “Anti-target(s) 0.1 μM” value is recorded as “ABHD6”, the “Anti-target(s) 1 μM” value is recorded as “FAAH,; also recorded: ABHD6”, the “Anti-target(s) 10 μM” value is given as “FAAH,; also recorded: MAGL,; also recorded: ABHD6” and the “Anti-target(s) 100 μM” value is “FAAH,; also recorded: MAGL,; also recorded: ABHD6”.

Take `COc1ccc(C(=O)N2CCN3C(=O)N(OC(=O)N4CCC(CCc5ccc(Cl)cc5)CC4)C(=O)C3C2)cc1` (stereo not shown) [Compound 11, 7-(4-methoxybenzoyl)-1,3-dioxohexahydroimidazo[1,5-a]pyrazin-2(3H)-yl 4-(4-chlorophenethyl)piperidine-1-carboxylate]: on LYPLA1, the inhibition at 1 µM amounted to 90%, the inhibition at 10 µM was determined as 100% and the inhibition at 100 µM is 100%. In addition, on LYPLA2, the inhibition at 1 µM is 90%, the inhibition at 10 µM came to 100% and the inhibition at 100 µM came out at 100%. Further, in assay [1], the “Anti-target(s) 1 μM” value is “ABHD6”, the “Anti-target(s) 10 μM” value is listed as “FAAH,; also recorded: ABHD12,; also recorded: MAGL,; also recorded: ABHD6” and the “Anti-target(s) 100 μM” value is recorded as “FAAH,; also recorded: ABHD12,; also recorded: MAGL,; also recorded: ABHD6”.

Consider `COC(=O)C1CCN(C(=O)ON2C(=O)C3CN(C(=O)OC(C)(C)C)CCN3C2=O)CC1` (stereo not shown) [Compound 15, 1-(7-(tert-butoxycarbonyl)-1,3-dioxohexahydroimidazo[1,5-a]pyrazin-2(3H)-yl) 4-methyl piperidine-1,4-dicarboxylate], for which, at LYPLA1, the inhibition at 0.1 µM is 0%, the inhibition at 1 µM amounted to 0%, the inhibition at 10 µM came out at 0% and the inhibition at 100 µM was found to be 25%. Besides, at LYPLA2, the inhibition at 0.1 µM stood at 0%, the inhibition at 1 µM was determined as 0%, the inhibition at 10 µM came out at 0% and the inhibition at 100 µM is 25%. Also, in assay [1], the “Anti-target(s) 0.1 μM” value was “ABHD6”, the “Anti-target(s) 1 μM” value is given as “ABHD6”, the “Anti-target(s) 10 μM” value is recorded as “ABHD6” and the “Anti-target(s) 100 μM” value is listed as “ABHD6”.

Turning to `COc1ccc(N2CCN(C(=O)ON3C(=O)C4CN(C(=O)OC(C)(C)C)CCN4C3=O)CC2)cc1` (stereo not shown) [Compound 21, tert-butyl 2-((4-(4-methoxyphenyl)piperazine-1-carbonyl)oxy)-1,3-dioxohexahydroimidazo[1,5-a]pyrazine-7(1H)-carboxylate], the “LYPLA1 in vitro enzyme activity, % @ 20 μM” value on LYPLA1 is on record as 0% @. Besides, at LYPLA2, the “LYPLA2 in vitro enzyme activity, % @ 20 μM” value turned out to be 0% @. Besides, on ABHD6, the “ABHD6 in vitro enzyme activity, % @ 20 μM” value is listed as 100% @.

These data come from patent US9981972B2, “N-hydroxy bicyclic hydantoin carbamates as tools for identification of serine hydrolase targets” (ABIDE THERAPEUTICS, INC., priority 2014, dated 2018).
